Results published in patent publication US8882853B2, “Environmentally-friendly solvent for washing and dry-cleaning, and laundry composition including the same” (LG Household & Health Care Ltd., priority 2011, dated 2014).
Read-outs that look alike come from different tables or passages of the source.

Legend:
[1] = Solubility in water; assay type: physicochemical
Source text: There has been a limitation in the effectiveness of conventional solvents for dry-cleaning in removing water-based contaminants due to the hydrophobic property thereof. Accordingly, in order to relatively evaluate a cleaning effect on the removal of water-based contaminants, the water-containing capacity of solvents according to the present invention was compared with that of the conventional dry-cleaning solvents.

[2] = Drying rate of solvent impregnated in standard cotton samples at room temperature; assay type: physicochemical; conditions: dried for 8 hours, room temperature (25° C.), relative humidity of 30%
Method: Each solvent used in Comparative Examples 1 to 7 and Examples 1 to 4 was evaluated for its drying rate at room temperature which is considered an important factor in dry-cleaning. The initial weight (A) of standard cotton samples was each measured. After impregnating each solvent or composition in a certain amount into the cotton samples, the weight (B) of the cotton samples was measured. A difference between weight (B) and weight (A) was calculated to determine the weight of each of the impregnated solvents. Then, the cotton samples in which each solvent was impregnated were dried for 8 hours under conditions of room temperature (25° C.) and a relative humidity of 30%. After drying, the weight of each cotton sample was measured and converted into a percentage relative to the initial impregnation weight to obtain a drying rate for each solvent.

SMILES	Drying rate (%) [2] [%]	Solubility (20° C.) ([1]; result in words)	Solubility (20° C.) [1] [g/ g/100 mL]
O [Com. Ex. 1, Water]	100	–	–
CC1(C)OCC(CO)O1 (centres unmarked) [Example 1, Acetone Glycerol]	100	soluble	–
ClC(Cl)=C(Cl)Cl [Com. Ex. 2, Perchloroethylene]	100	–	0.015
C[Si]1(C)O[Si](C)(C)O[Si](C)(C)O[Si](C)(C)O[Si](C)(C)O1 [Com. Ex. 4, Decamethyl-cyclopentasiloxane]	100	Insol-	–

The next lines start with results.

Drying rate (%) [2] [%]	SMILES	Solubility (20° C.) ([1]; result in words)	Solubility (20° C.) [1] [g/ g/100 mL]
100	CCC1(C)OCC(CO)O1 (centres unmarked) [Example 2, Glycerol-Methyl Ethyl Ketone Ketal]	soluble	–
95.29	COCC(CO)OC (centres unmarked) [Com. Ex. 6, 2,3-Dimethoxy-1-propanol]	–	–
10.53	COCC(O)CO (centres unmarked) [Com. Ex. 5, 3-Methoxy 1,2-propanol]	–	–
90.3	CCCC1OCC(CO)O1 (centres unmarked) [Example 4, Glycerol-Butylaldehyde Acetal]	soluble	–
85.25	CC(C)CC1(C)OCC(CO)O1 (centres unmarked) [Example 3, Glycerol-Methyl Isobuthyl Ketone Ketal]	–	–
